From patent US7173004B2, “Macrocyclic isoquinoline peptide inhibitors of hepatitis C virus” (Bristol-Myers Squibb Company, priority 2003, dated 2007)
Read-outs that look alike come from different tables or passages of the source.

How the values were obtained:
[1] = biological target: T1, HCV NS3/4A protease complex, BMS strain (genotype 1a) (UniProt P27958, C1454S/C1711G, species not given/STRAIN_BMS); assay: Recombinant HCV NS3/4A protease complex FRET peptide assay, BMS strain; format: biochemical
T1 construct: b1001: DNA encoding the recombinant HCV NS3/4A protease complex (amino acids 1027 to 1711) ... a three-lysine solubilizing tail was added at the 3′-end of the NS4A coding region; fused on or other part: Three-lysine solubilising tail at the C-terminus of NS4A; A His tag is implied by the pET21b vector and Ni-NTA purification
Outline: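 Recombinant NS3/4A (aa 1027–1711) from H77C, J4L6S or BMS strains, with C1454S and C1711G mutations and three-lysine tail, expressed in E. coli and Ni-NTA/gel-filtration purified to >90%. Inhibition of cleavage of a FRET peptide substrate measured.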

[2] = biological target: T2, HCV NS3/4A protease complex, H77C strain (1a genotype) (Hepatitis C virus genotype 1a, UniProt P27958, C1454S); assay: Recombinant HCV NS3/4A protease complex FRET peptide assay, H77C strain; format: biochemical
T2 construct: DNA encoding the recombinant HCV NS3/4A protease complex (amino acids 1027 to 1711) for these strains; His tag (inferred from Ni-NTA purification and pET21b vector); made in house; host or cells: Escherichia coli BL21 (DE3)
Description: Recombinant HCV NS3/4A Protease Complex FRET Peptide Assay
The purpose of this in vitro assay was to measure the inhibition of HCV NS3 protease complexes, derived from the BMS strain, H77C strain or J416S strain, as described below, by compounds of the present invention. This assay provides an indication of how effective compounds of the present invention would be in inhibiting HCV proteolytic activity.
Serum from an HCV-infected patient was obtained from Dr. T. Wright, San Francisco Hospital. An engineered full-length cDNA (compliment deoxyribonucleic acid) template of the HCV genome (BMS strain) was constructed from DNA fragments obtained by reverse transcription-PCR (RT-PCR) of serum RNA (ribonucleic acid) and using primers selected on the basis of homology between other genotype 1a strains. From the determination of the entire genome sequence, a genotype 1a was assigned to the HCV isolate according to the classification of Simmonds et al. (See P Simmonds, K A Rose, S Graham, S W Chan, F McOmish, B C Dow, E A Follett, P L Yap and H Marsden, J. Clin. Microbiol., 31(6), 1493–1503 (1993)). […]

[3] = NS3/4A BMS strain, activity range symbols

T2 sequence (P27958 1027-1657 C1454S): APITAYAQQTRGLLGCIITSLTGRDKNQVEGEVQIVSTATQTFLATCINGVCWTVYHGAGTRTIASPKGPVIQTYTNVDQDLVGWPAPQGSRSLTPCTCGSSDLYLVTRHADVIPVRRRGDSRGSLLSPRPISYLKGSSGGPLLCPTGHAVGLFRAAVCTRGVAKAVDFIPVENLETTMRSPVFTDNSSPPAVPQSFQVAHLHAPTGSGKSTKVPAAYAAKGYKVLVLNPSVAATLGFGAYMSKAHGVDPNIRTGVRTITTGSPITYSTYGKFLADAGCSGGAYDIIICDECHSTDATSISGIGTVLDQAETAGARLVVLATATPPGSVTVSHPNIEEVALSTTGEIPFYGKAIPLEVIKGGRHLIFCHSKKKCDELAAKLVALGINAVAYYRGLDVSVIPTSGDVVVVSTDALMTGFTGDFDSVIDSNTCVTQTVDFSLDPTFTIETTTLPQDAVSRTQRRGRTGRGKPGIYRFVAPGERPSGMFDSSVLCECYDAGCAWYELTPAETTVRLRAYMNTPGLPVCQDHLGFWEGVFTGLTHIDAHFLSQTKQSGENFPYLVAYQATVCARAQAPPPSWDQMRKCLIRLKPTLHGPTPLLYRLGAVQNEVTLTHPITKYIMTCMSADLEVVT
T2 sequence (P27958 1658-1714 partner, looked up, stated change not applied): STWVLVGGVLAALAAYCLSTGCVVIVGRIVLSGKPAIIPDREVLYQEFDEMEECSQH

SMILES: CC(C)(C)OC(=O)N[C@H]1CCCCC/C=C\[C@@H]2C[C@@]2(C(=O)NS(C)(=O)=O)NC(=O)[C@@H]2C[C@@H](Oc3nccc4ccccc34)CN2C1=O [Compound 2, [18-(Isoquinolin-1-yloxy)-4-methanesulfonylaminocarbonyl-2,15-dioxo-3,16-diaza-tricyclo[14.3.0.0^4,6]nonadec-7-en-14-yl]-carbamic acid tert-butyl ester]
- IC50 [1, 3]: < 50 nM
- IC50 ([1]; read-out: IC50 against the BMS strain NS3/4A protease in the enzyme assay, BMS strain): 26 nM
- IC50 [2]: 4.2 nM

SMILES: COc1ccc2c(OC3CC4C(=O)NC5(C(=O)NS(=O)(=O)C6CC6)CC5C=CCCCOC(C)C(NC(=O)OC(C)C)C(=O)N4C3)nccc2c1 (stereo not drawn) [Compound 64]
- IC50 [1, 3]: < 50 nM

SMILES: COc1ccc2c(OC3CC4C(=O)NC5(C(=O)NS(=O)(=O)C6(C)CC6)CC5C=CCCCOC(C)C(NC(=O)OC(C)(C)C)C(=O)N4C3)nccc2c1 (stereo not drawn) [Compound 66]
- IC50 [1, 3]: < 50 nM

SMILES: CCC1(S(=O)(=O)NC(=O)C23CC2C=CCCCSCC(NC(=O)NC2CCCC2)C(=O)N2CC(Oc4nccc5cc(OC)ccc45)CC2C(=O)N3)CC1 (stereo not drawn) [Compound 46]
- IC50 [1, 3]: < 50 nM
